Measurements taken from US8232269B2, “Amide compounds useful in therapy” (Pfizer Inc., priority 2008, dated 2012).

Biological target: T1, Progesterone Receptor (PR) (Homo sapiens, UniProt P06401)
T1 construct: endogenous in cells; host or cells: T47D human breast mammary carcinoma cells
T1 sequence (P06401 1-933): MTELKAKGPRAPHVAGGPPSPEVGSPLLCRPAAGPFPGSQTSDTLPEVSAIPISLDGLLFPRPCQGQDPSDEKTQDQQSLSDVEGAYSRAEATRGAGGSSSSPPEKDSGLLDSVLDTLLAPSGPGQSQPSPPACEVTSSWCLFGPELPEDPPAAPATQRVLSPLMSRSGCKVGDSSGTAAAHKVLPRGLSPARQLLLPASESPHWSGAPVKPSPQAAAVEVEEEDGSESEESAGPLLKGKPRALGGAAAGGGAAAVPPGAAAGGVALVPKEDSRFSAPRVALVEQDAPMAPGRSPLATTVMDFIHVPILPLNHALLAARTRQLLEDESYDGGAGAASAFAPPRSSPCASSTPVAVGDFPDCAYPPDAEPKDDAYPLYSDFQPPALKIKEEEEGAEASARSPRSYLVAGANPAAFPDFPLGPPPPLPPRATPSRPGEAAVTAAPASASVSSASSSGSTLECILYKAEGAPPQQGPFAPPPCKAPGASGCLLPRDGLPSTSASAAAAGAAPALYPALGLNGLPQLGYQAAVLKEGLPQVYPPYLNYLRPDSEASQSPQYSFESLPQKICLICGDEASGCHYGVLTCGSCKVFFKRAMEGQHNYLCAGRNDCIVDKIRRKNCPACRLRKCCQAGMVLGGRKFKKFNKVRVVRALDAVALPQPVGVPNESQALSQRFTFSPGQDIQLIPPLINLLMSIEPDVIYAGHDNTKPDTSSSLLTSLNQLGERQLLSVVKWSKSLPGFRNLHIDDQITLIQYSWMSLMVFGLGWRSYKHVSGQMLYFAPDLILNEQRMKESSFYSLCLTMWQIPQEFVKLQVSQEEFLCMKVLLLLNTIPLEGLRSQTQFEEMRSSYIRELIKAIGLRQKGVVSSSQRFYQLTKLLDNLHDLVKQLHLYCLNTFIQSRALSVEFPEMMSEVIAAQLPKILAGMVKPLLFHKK
Assay: In vitro functional assay for progesterone receptor (PR) antagonists: inhibition of progesterone-induced alkaline phosphatase expression in T47D cells
Assay type: cell-based
Conditions: antagonist format, 5 nM progesterone, Ki calculated from IC50 with the Cheng-Prusoff equation
Description: 1.0 In vitro Functional Assay for Progesterone Receptor (PR) Antagonists, Agonists and Modulators
The assay for PR antagonism takes advantage of the extensively reported modulation of alkaline phosphatase (AP) expression in human breast T47D mammary carcinoma cells {Beck et al., D. P. (1993). The progesterone antagonist RU486 acquires agonist activity upon stimulation of cAMP signalling pathways. Proc Natl Acad Sci USA 90, 4441-4445; Fensome et al. (2002). New progesterone receptor antagonists: 3,3-disubstituted-5-aryloxindoles. Bioorg Med Chem Lett 12, 3487-3490; Zhang et al., (2002a). 6-Aryl-1,4-dihydro-benzo d1,3oxazin-2-ones: a novel class of potent, selective, and orally active nonsteroidal progesterone receptor antagonists. Journal of Medicinal Chemistry 45, 4379-4382; Zhang et al., (2003). Novel 6-aryl-1,4-dihydrobenzo d oxazine-2-thiones as potent, selective, and orally active nonsteroidal progesterone receptor agonists. Bioorganic & Medicinal Chemistry Letters 13, 1313-1316; Zhang et al., (2002b). Potent nonsteroidal progesterone receptor agonists: synthesis and SAR study of 6-aryl benzoxazines. Bioorganic & Medicinal Chemistry Letters 12, 787-790; Zhang, Z. et al., (2000). In vitro characterization of trimegestone: a new potent and selective progestin. Steroids 65, 637-643}. […] In the absence of progesterone any agonist activity is also observed as an induction of AP activity. By running the assay in two formats (+/−progesterone (P4)), compounds behaving as PR antagonists, agonists, partial agonists or modulators with mixed agonist/antagonist activity can be identified.
Briefly, T47D cells are grown by propagating in DMEM with phenol red+10% FCS+2 mM Glutamine at 37° C./5% CO2. At 70-80% confluence, the media is exchanged for phenol red free DMEM+5% CS-FCS (Assay media). Cells are incubated overnight in assay media then harvested and frozen in assay media containing 10% DMSO at 1.5e7 cells/mL in 2 mL aliquots using a Planer and immediately stored in liquid nitrogen. Vials are removed from liquid nitrogen storage and immediately thawed in a water bath at 37° C. The cell suspension is added dropwise to 20 mL of assay media, then the tube centrifuged at 1000 rpm for 4 minutes, the supernatant is discarded and the pellet re-suspended in 20 mL assay media. T47D cells are then plated at 8750 cells/well in 35 μL assay media in sufficient white solid 384 well TC plates for the assay. For the agonist format assay a further 10 μL of assay media is added to each well. These plates are then cultured for 3-6 hours at 37° C./5% CO2 before compound addition.
Test substances are prepared by in 100% DMSO, half log concentrations from 4 mM in 384 well plates 5 μL/well (referred to here as ‘grandmother plates’). Progesterone is 100 μM made up in ethanol and PBS (i.e. add 1 mL ethanol to progesterone initially to help dissolving) and stored in 0.5-1 mL aliquots at −20° C.
Using a multidrop (Thermolabsystems), 60 μL/well of buffer is added to a 384 well plate—this will be the ‘mother plate’. _Add 45 μL well buffer to grandmother plate using the multidrop (=400 μM 10% DMSO dilution). Mixed and spun to remove air bubbles. • 20 μL is taken from the grandmother plate (400 μM 10% DMSO) and added to the mother plate (=100 μM 2.5% DMSO). Mixed and spun to remove air bubbles Preparation of Max/Min:
Antagonist Min: (Checker Pattern on Plate Map) 1 μM RU-486 (FAC 0.1 μM) • 50 μL of 0.2 mM RU-486 • 10 mL Diluent Addition of Test Substance to Cell Plates • The PlateMate Plus was used to add 5 μL MAX/MIN to cell plates • Then 5 μL test substances are added from the mother plate (after removing max/min PlateMate tips: columns 1 and 24)
Addition of Agonist (5 nM Progesterone FAC) for Antagonist Format Only
25 nM progesterone in assay media is prepared from 100 μM stock (12.5 μL progesterone/50 mL media), from which 10 μL per well is transferred to the assay plate using the PlateMate Plus (already containing cells & compound). […]

| SMILES | Ki [nM] |
| --- | --- |
| CC(C)n1nc(-c2ccc(C#N)cc2)c(C2CC2)c1C(=O)NCC1CCCO1 (racemic) [Example 36, (+/−)-3-(4-Cyanophenyl)-4-cyclopropyl-1-isopropyl-N-(tetrahydrofuran-2-ylmethyl)-1H-pyrazole-5-carboxamide] | 12 |
| CC(NC(=O)c1c(C2CC2)c(-c2ccc(C#N)cc2)nn1C(C)C)c1cnn(C)c1 (racemic) [Example 39] | 17.8 |
| CC(C)n1nc(-c2ccc(C#N)cc2)c(C2CC2)c1C(=O)NC1CCCOC1 (racemic) [Example 40, (+/−)-3-(4-Cyanophenyl)-4-cyclopropyl-1-isopropyl-N-(tetrahydro-2H-pyran-3-yl)-1H-pyrazole-5-carboxamide] | 17.5 |
| CC(C)n1nc(-c2ccc(C#N)cc2)c(C2CC2)c1C(=O)NC1CCC(=O)N(C)C1 (racemic) [Example 41, (+/−)-3-(4-Cyanophenyl)-4-cyclopropyl-1-isopropyl-N-(1-methyl-6-oxopiperidin-3-yl)-1H-pyrazole-5-carboxamide] | 25 |
| CC(Cn1cccn1)NC(=O)c1c(C2CC2)c(-c2ccc(C#N)cc2)nn1C(C)C (racemic) [Example 44, (+/−)-3-(4-Cyanophenyl)-4-cyclopropyl-1-isopropyl-N-[1-methyl-2-(1H-pyrazol-1-yl)ethyl]-1H-pyrazole-5-carboxamide] | 40.8 |
| CC(C)n1nc(-c2ccc(C#N)cc2)c(C2CC2)c1C(=O)NC1CNC(=O)C1 (racemic) [Example 45, (+/−)-3-(4-Cyanophenyl)-4-cyclopropyl-1-isopropyl-N-[(3R)-5-oxopyrrolidin-3-yl]-1H-pyrazole-5-carboxamide] | 104 |
| CC(C)n1nc(-c2ccc(C#N)cc2)c(C2CC2)c1C(=O)NC1CCS(=O)(=O)C1 (racemic) [Example 57, (+/−)-3-(4-Cyanophenyl)-4-cyclopropyl-N-(1,1-dioxidotetrahydro-3-thienyl)-1-isopropyl-1H-pyrazole-5-carboxamide] | 7.43 |
| CCNC(=O)c1c(C)c(-c2ccc(C#N)cc2)nn1C1CCOC1 (racemic) [Example 76, 3-(4-Cyanophenyl)-N-ethyl-4-methyl-1-(tetrahydrofuran-3-yl)-1H-pyrazole-5-carboxamide] | 26.9 |
| Cc1c(-c2ccc(C#N)cc2)nn(C2CCOC2)c1C(=O)NC(C)C (racemic) [Example 77, 3-(4-Cyanophenyl)-N-isopropyl-4-methyl-1-(tetrahydrofuran-3-yl)-1H-pyrazole-5-carboxamide] | 28.2 |

Results, then the molecule that gave them:

| Ki [nM] | SMILES |
| --- | --- |
| 71.6 | Cc1c(-c2ccc(C#N)cc2)nn(C2CCOC2)c1C(=O)NC[C@H](C)O (mixture of isomers) [Example 78, 3-(4-Cyanophenyl)-N-[(2S)-2-hydroxypropyl]-4-methyl-1-(tetrahydrofuran-3-yl)-1H-pyrazole-5-carboxamide] |
| 63 | CCc1c(-c2ccc(C#N)cc2)nn(C(C)CC)c1C(=O)NC[C@@H](C)O (mixture of isomers) [Example 107, 1-sec-Butyl-3-(4-cyanophenyl)-4-ethyl-N-[(2R)-2-hydroxypropyl]-1H-pyrazole-5-carboxamide] |
| 138 | Cc1c(-c2ccc(C#N)cc2)nn(C2CCOC2)c1C(=O)NCC(C)(C)O (racemic) [Example 80, 3-(4-Cyanophenyl)-N-(2-hydroxy-2-methylpropyl)-4-methyl-1-(tetrahydrofuran-3-yl)-1H-pyrazole-5-carboxamide] |
| 7.67 | CCc1c(-c2ccc(C#N)cc2)nn(C(C)CC)c1C(=O)NCC1CC1 (racemic) [Example 101, (+/−)-1-sec-Butyl-3-(4-cyanophenyl)-N-(cyclopropylmethyl)-4-ethyl-1H-pyrazole-5-carboxamide] |
| 14.7 | CCc1c(-c2ccc(C#N)cc2)nn(C(C)CC)c1C(=O)NC(C)C (racemic) [Example 102, (+/−)-1-sec-Butyl-3-(4-cyanophenyl)-4-ethyl-N-isopropyl-1H-pyrazole-5-carboxamide] |
| 12.7 | CCNC(=O)c1c(CC)c(-c2ccc(C#N)cc2)nn1C(C)CC (racemic) [Example 103, (+/−)-1-sec-Butyl-3-(4-cyanophenyl)-N,4-diethyl-1H-pyrazole-5-carboxamide] |
